Where two headings read alike, the source gives them in different places.

Here are results for 4 compounds from US20250228832A1, “METHODS FOR TREATING DISORDERS AMELIORATED BY MUSCARINIC RECEPTOR ACTIVATION” (KARUNA THERAPEUTICS, INC., priority 2022, published 2025).

One series addresses T1, human M4 receptor (Homo sapiens, UniProt P08173).
T1 construct: expressed in transfected cells
T1 sequence (P08173 1-479): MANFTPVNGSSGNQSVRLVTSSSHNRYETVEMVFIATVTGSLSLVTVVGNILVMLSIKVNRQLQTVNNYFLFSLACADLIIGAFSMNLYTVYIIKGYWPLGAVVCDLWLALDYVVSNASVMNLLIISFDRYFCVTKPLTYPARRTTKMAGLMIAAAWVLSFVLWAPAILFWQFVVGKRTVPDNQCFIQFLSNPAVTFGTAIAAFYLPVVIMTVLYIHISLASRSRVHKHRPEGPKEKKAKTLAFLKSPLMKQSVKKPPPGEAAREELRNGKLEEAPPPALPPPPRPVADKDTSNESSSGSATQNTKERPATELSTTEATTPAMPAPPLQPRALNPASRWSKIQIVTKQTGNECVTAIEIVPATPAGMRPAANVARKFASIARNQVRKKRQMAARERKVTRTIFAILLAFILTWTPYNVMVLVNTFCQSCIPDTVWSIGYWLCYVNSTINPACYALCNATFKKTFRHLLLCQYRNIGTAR
In words: SPA GTP (GTPgS) binding curve shift assay, M4. In kind it is biochemical. The method, then: Membranes were prepared for GTPgS binding assays from CHO-K1 cells stably expressing human M2 or human M4 receptors. Cells were grown in 5-layer cell culture flasks. Cells were washed with 50 mL of PBS and then dissociated with 0.05% trypsin. Dissociated cells were then collected by centrifugation at 650×g for 8 min at 4° C. Pellets were rewashed in PBS by centrifugation and resuspended in 30 mL of 20 mM HEPES, 10 mM EDTA, pH 7.4. After sitting on ice for 30 min, membranes were collected by centrifugation at 50000×g for 15 min at 4° C., resuspended in 30 mL of 20 mM HEPES, 0.1 mM EDTA, pH 7.4, and collected again by centrifugation. Pellets were then washed twice by centrifugation in 30 mL of 20 mM HEPES, pH 7.4, and stored at −80° C. until the day of the assay. On the day of the assay, pellets were thawed on ice and resuspended in 1 mL of 20 mM HEPES, pH 7.4, 10 mM MgCl2, and 100 mM NaCl using Dounce homogenization.
According to Promega guidelines, membrane protein concentration was determined by BCA protein assay (Promega, Madison, WI).
On the day of the assay, serial dilutions of test PAM compounds were brought up in assay buffer (20 mM HEPES, 10 mM MgCl2; see Table 4 for NaCl concentrations) at four times the final assay concentration. […] of membrane homogenates (containing […] of membrane protein) were prepared in assay buffer supplemented with GDP at 4× final assay concentration (see Table 4 for GDP concentrations) and dispensed into 96 well polypropylene, U-bottom Greiner plates. Membrane plates were incubated for 10 min at room temperature with gentle shaking. Then, 25 μL of test compounds were added to assay plates. Plates were then incubated, with shaking, for an additional 10-15 min. Then, 25 μL of diluted agonists serially diluted in assay buffer at 4× final assay concentration was added to assay plates. Plates were then incubated, with shaking, for an additional 10-15 min. Next, […] of 0.4 nM ^35S-GTP (Perkin Elmer, Waltham, MA) in assay buffer was added to assay mixtures. The binding reaction was left on the shaker for 1 h at room temperature. Membranes in assay reactions were then transferred to GF/C filter plates (UniFilter, Perkin Elmer) and washed three times using FilterMate Harvester (Perkin Elmer) with cold assay buffer containing no GDP. Filter plates were then dried at 40° C. overnight, and […] of Beta Plate Scintillation liquid was added. Plates were top and bottom sealed before being read on the TopCount scintillation counter (Perkin Elmer, Waltham, MA).
Raw data for all assays was transmitted directly from plate readers into the Beacon database for processing. All assay plates contained positive and negative control wells for data normalization and scaling. […] All control wells contained DMSO at a final assay concentration that matched the test compound wells.
For GTPgS assays, the negative control wells were defined as 0% response. The highest response in a plate was scaled to 1, representing 100% response. Data from test compound wells was scaled to these controls and are reported as % control values. This was done to allow for subsequent GraphPad cooperativity analysis, setting the maximal response at no more than 1.

For series [1] the following is noted: 25-75 mg TID, 75-225 mg TDD; cited from earlier work.
For series [2] the following is noted: 26-week study of Alzheimer's disease; cited from earlier work.
[3] abbreviates: Emraclidine concentration 41.2 nM, read-out: Emax.
The mark [4] stands for this setting: Emraclidine concentration 123 nM, read-out: Emax.
[5] abbreviates: Emraclidine concentration 370 nM.
The mark [6] stands for this setting: Emraclidine concentration 1110 nM, read-out: Emax.
Where [7] appears, read: Emraclidine concentration 3330 nM, read-out: Emax.
Setting [8] is: MK-4710 concentration 41.2 nM, read-out: Emax.
Setting [9] is: MK-4710 concentration 123 nM, read-out: Emax.
Where [10] appears, read: MK-4710 concentration 1110 nM, read-out: Emax.
The mark [11] stands for this setting: MK-4710 concentration 3330 nM, read-out: Emax.

Take `CCCCCOc1nsnc1C1=CCCCN1C` [KTX-517, 3-(1-methyl-1,4,5,6-tetrahydropyridin-2-yl)-4-(pentyloxy)-1,2,5-thiadiazole]: the EC50 was determined as 1.6 nM at human M4 receptor (Emraclidine concentration 0 nM); 548 nM at human M4 receptor (MK-4710 concentration 0 nM); 2.3 nM on human M4 receptor (MK-4710 concentration 41.2 nM); 1.4 nM on human M4 receptor (MK-4710 concentration 123 nM); 2.1 nM on human M4 receptor (MK-4710 concentration 370 nM); 2.3 nM at human M4 receptor (MK-4710 concentration 1110 nM). Also, the EC50 at human M4 receptor (MK-4710 concentration 3330 nM) is 1.5 nM; on human M4 receptor (MK-4710 concentration […]), 8.7 nM. In addition, the Emax at human M4 receptor (Emraclidine concentration 0 nM) came to 2.6%; on human M4 receptor (setting [3]), 17.8%; at human M4 receptor (setting [4]), 29.6%; at human M4 receptor (setting [6]), 62.4%; on human M4 receptor (setting [7]), 66.8%; at human M4 receptor (MK-4710 concentration 0 nM), 12.6%. In addition, the Emax on human M4 receptor (setting [8]) is 27.3%; on human M4 receptor (setting [9]), 34.3%; on human M4 receptor (setting [10]), 75.1%; on human M4 receptor (setting [11]), 87.1%. Also, the Emax at […] on human M4 receptor (setting [5]) was 46.5%; at human M4 receptor (Emraclidine concentration […]), 10.6%; at human M4 receptor (MK-4710 concentration 370 nM), 53.4%; at human M4 receptor (MK-4710 concentration […]), 20.4%. Moreover, the “α (cooperativity, affinity shift)” value was 3.0 on human M4 receptor (M4 PAM Emraclidine) and 1.0 at human M4 receptor (M4 PAM MK-4710). Besides, the “β (cooperativity, efficacy shift)” value on human M4 receptor (M4 PAM Emraclidine) came to 32.3; on human M4 receptor (M4 PAM MK-4710), 1395.0. Besides, the “τ (agonist pharmacology)” value on human M4 receptor (M4 PAM Emraclidine) turned out to be 0.6; on human M4 receptor (M4 PAM MK-4710), 0.8.

Take `CC1OC2(CS1)CN1CCC2CC1` (centres unmarked) [cevimeline, Cevimeline, reference compound]: the EC50 was 1300 nM on human M4 receptor (Emraclidine concentration 0 nM) and 3010 nM at human M4 receptor (MK-4710 concentration 0 nM). For the same compound, the Emax on human M4 receptor (Emraclidine concentration 0 nM) worked out at 4.0%; on human M4 receptor (setting [3]), 13.2%; on human M4 receptor (setting [4]), 28%; at human M4 receptor (setting [6]), 73.3%; at human M4 receptor (setting [7]), 86.3%; on human M4 receptor (MK-4710 concentration 0 nM), 6.4%. Also, the Emax worked out at 20.2% at human M4 receptor (setting [8]), 26.6% on human M4 receptor (setting [9]), 68.1% on human M4 receptor (setting [10]) and 83.6% on human M4 receptor (setting [11]). In addition, the Emax at […] at human M4 receptor (setting [5]) came to 49.2%; at human M4 receptor (Emraclidine concentration […]), 10.6%; on human M4 receptor (MK-4710 concentration 370 nM), 42.1%; on human M4 receptor (MK-4710 concentration […]), 14.4%. In addition, the “α (cooperativity, affinity shift)” value at human M4 receptor (M4 PAM Emraclidine) and at human M4 receptor (M4 PAM MK-4710) was 1.0 in each case. Also, the figures for the “β (cooperativity, efficacy shift)” value at human M4 receptor (M4 PAM Emraclidine) and at human M4 receptor (M4 PAM MK-4710) were 57.2 and 136.5, respectively. Moreover, the “τ (agonist pharmacology)” value at human M4 receptor (M4 PAM Emraclidine) came to 0.4; at human M4 receptor (M4 PAM MK-4710) it was 0.1.

In the case of `CCCCCCCOc1nsnc1C1=CCCCN1C` [KTX-593, 3-(heptyloxy)-4-(1-methyl-1,4,5,6-tetrahydropyridin-2-yl)-1,2,5-thiadiazole], the values for the EC50 on human M4 receptor (Emraclidine concentration 0 nM) and on human M4 receptor (MK-4710 concentration 0 nM) were 12.7 nM and 44.7 nM, respectively. Further, the Emax was 14.3% on human M4 receptor (Emraclidine concentration 0 nM); 24.5% on human M4 receptor (setting [3]); 43.9% on human M4 receptor (setting [4]); 76.8% at human M4 receptor (setting [6]); 84% on human M4 receptor (setting [7]); 14.0% at human M4 receptor (MK-4710 concentration 0 nM). Also, the Emax on human M4 receptor (setting [8]) worked out at 35.9%; at human M4 receptor (setting [9]), 41.8%; at human M4 receptor (setting [10]), 80%; at human M4 receptor (setting [11]), 88.1%. For the same compound, the Emax at […] stood at 60.1% on human M4 receptor (setting [5]), 24.2% on human M4 receptor (Emraclidine concentration […]), 59.7% on human M4 receptor (MK-4710 concentration 370 nM) and 26% on human M4 receptor (MK-4710 concentration […]). In addition, the “α (cooperativity, affinity shift)” value on human M4 receptor (M4 PAM Emraclidine) amounted to 2.4; at human M4 receptor (M4 PAM MK-4710) it was 1.0. Further, the “β (cooperativity, efficacy shift)” value at human M4 receptor (M4 PAM Emraclidine) is given as 56.3; at human M4 receptor (M4 PAM MK-4710), 1051018.0. For the same compound, the “τ (agonist pharmacology)” value at human M4 receptor (M4 PAM Emraclidine) came out at 1.5; at human M4 receptor (M4 PAM MK-4710) it was 381.2.

Regarding `CCCCCCOc1nsnc1C1=CCCN(C)C1` [xanomeline, reference compound], the Emax on human M4 receptor (Emraclidine concentration 0 nM) amounted to 27.2%; on human M4 receptor (setting [3]), 31.9%; on human M4 receptor (setting [4]), 38.1%; on human M4 receptor (setting [6]), 78.7%; at human M4 receptor (setting [7]) it was 89.4%; at human M4 receptor (MK-4710 concentration 0 nM) it was 19.7%. Also, the Emax at human M4 receptor (setting [8]) came to 29.7%; at human M4 receptor (setting [9]) it was 38.5%; at human M4 receptor (setting [10]) it was 70.6%; on human M4 receptor (setting [11]) it was 80.5%. Besides, the Emax at […] on human M4 receptor (setting [5]) turned out to be 60%; at human M4 receptor (Emraclidine concentration […]), 28.7%; on human M4 receptor (MK-4710 concentration 370 nM) it was 55%; at human M4 receptor (MK-4710 concentration […]) it was 25.1%. In addition, on human M4 receptor (M4 PAM Emraclidine), the “τ (agonist pharmacology)” value is 1.4. In addition, in series [1], the “positive (psychosis), negative, and cognitive symptoms of schizophrenia” value is recorded as “improved”. In addition, the dropout rate in series [2] is listed as 56%.
